Measured values taken from the supplement of paper PMC10307832.

Legend:
Assay in all cases: relative viability (nuclei count vs DMSO), 5 days (fraction); higher = more cells survive
ABC-1 = tested on: ABC-1
How it was run: (§1)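 Lung cancer cell lines in 1536-well plates got either a single drug or a fixed anchor-drug dose together with five library-drug doses (not always all listed) in √10 steps, by pin tool, on the day after seeding. Nuclei were counted after 5 days, and relative viability is the treated-to-vehicle ratio of nuclei counts. Values are medians of duplicate plates.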

SK-MES-1 = tested on: SK-MES-1
How it was run: as §1

NCI-H1355 = tested on: NCI-H1355
How it was run: as §1

NCI-H322M = tested on: NCI-H322M
How it was run: as §1

NCI-H1915 = tested on: NCI-H1915
How it was run: as §1

NCI-H2085 = tested on: NCI-H2085
How it was run: as §1

NCI-H2087 = tested on: NCI-H2087
How it was run: as §1

CAL-12T = tested on: CAL-12T
How it was run: as §1

NCI-H1395 = tested on: NCI-H1395
How it was run: as §1

A-427 = tested on: A-427
How it was run: as §1

PC-14 = tested on: PC-14
How it was run: as §1

LCLC-97TM1 = tested on: LCLC-97TM1
How it was run: as §1

NCI-H838 = tested on: NCI-H838
How it was run: as §1

UMC-11 = tested on: UMC-11
How it was run: as §1

NCI-H358 = tested on: NCI-H358
How it was run: as §1

H3255 = tested on: H3255
How it was run: as §1

PC-3 [JPC-3] = tested on: PC-3 [JPC-3]
How it was run: as §1

NCI-H1666 = tested on: NCI-H1666
How it was run: as §1

NCI-H1792 = tested on: NCI-H1792
How it was run: as §1

NCI-H2228 = tested on: NCI-H2228
How it was run: as §1

LK-2 = tested on: LK-2
How it was run: as §1

NCI-H1651 = tested on: NCI-H1651
How it was run: as §1

NCI-H661 = tested on: NCI-H661
How it was run: as §1

O=C(O)CCCCC(CCSCc1ccccc1)SCc1ccccc1 (stereo not drawn) [CPI-613] + CCNC(=O)c1noc(-c2cc(C(C)C)c(O)cc2O)c1-c1ccc(CN2CCOCC2)cc1 [Luminespib] (partner 0.01 µM)
relative viability (ABC-1; first compound 5 µM): 0.629 | relative viability (ABC-1; first compound 50 µM): 0.776 | relative viability (ABC-1; first compound 158.11 µM): 0.185 | relative viability (ABC-1; first compound 500 µM): 0.183 | relative viability (SK-MES-1; first compound 5 µM): 0.772 | relative viability (SK-MES-1; first compound 15.81 µM): 0.659 | relative viability (SK-MES-1; first compound 50 µM): 0.666 | relative viability (SK-MES-1; first compound 158.11 µM): 0.163 | relative viability (SK-MES-1; first compound 500 µM): 0.0794 | relative viability (NCI-H1355; first compound 5 µM): 0.692 | relative viability (NCI-H1355; first compound 15.81 µM): 0.701 | relative viability (NCI-H1355; first compound 50 µM): 0.691 | relative viability (NCI-H1355; first compound 158.11 µM): 0.25 | relative viability (NCI-H1355; first compound 500 µM): 0.35 | relative viability (NCI-H322M; first compound 5 µM): 0.777 | relative viability (NCI-H322M; first compound 15.81 µM): 0.781 | relative viability (NCI-H322M; first compound 50 µM): 0.826 | relative viability (NCI-H322M; first compound 158.11 µM): 0.53 | relative viability (NCI-H322M; first compound 500 µM): 0.0612 | relative viability (NCI-H1915; first compound 5 µM): 0.746 | relative viability (NCI-H1915; first compound 15.81 µM): 0.841 | relative viability (NCI-H1915; first compound 50 µM): 0.675 | relative viability (NCI-H1915; first compound 158.11 µM): 0.161 | relative viability (NCI-H1915; first compound 500 µM): 0.0405 | relative viability (NCI-H2085; first compound 5 µM): 0.43 | relative viability (NCI-H2085; first compound 15.81 µM): 0.371 | relative viability (NCI-H2085; first compound 50 µM): 0.406 | relative viability (NCI-H2085; first compound 158.11 µM): 0.177 | relative viability (NCI-H2085; first compound 500 µM): 0.118 | relative viability (NCI-H2087; first compound 5 µM): 0.182 | relative viability (NCI-H2087; first compound 15.81 µM): 0.165 | relative viability (NCI-H2087; first compound 50 µM): 0.155 | relative viability (NCI-H2087; first compound 158.11 µM): 0.0422 | relative viability (NCI-H2087; first compound 500 µM): 0.026 | relative viability (CAL-12T; first compound 5 µM): 0.349 | relative viability (CAL-12T; first compound 15.81 µM): 0.325 | relative viability (CAL-12T; first compound 50 µM): 0.377 | relative viability (CAL-12T; first compound 158.11 µM): 0.0292 | relative viability (CAL-12T; first compound 500 µM): 0.0074 | relative viability (NCI-H1395; first compound 5 µM): 0.672 | relative viability (NCI-H1395; first compound 15.81 µM): 0.828 | relative viability (NCI-H1395; first compound 50 µM): 0.749 | relative viability (NCI-H1395; first compound 158.11 µM): 0.665 | relative viability (NCI-H1395; first compound 500 µM): 0.659 | relative viability (A-427; first compound 5 µM): 0.85 | relative viability (A-427; first compound 15.81 µM): 0.938 | relative viability (A-427; first compound 50 µM): 0.761 | relative viability (A-427; first compound 158.11 µM): 0.512 | relative viability (A-427; first compound 500 µM): 0.126 | relative viability (PC-14; first compound 5 µM): 0.158 | relative viability (PC-14; first compound 15.81 µM): 0.185 | relative viability (PC-14; first compound 50 µM): 0.167 | relative viability (PC-14; first compound 158.11 µM): 0.129 | relative viability (PC-14; first compound 500 µM): 0.0407 | relative viability (LCLC-97TM1; first compound 5 µM): 0.641 | relative viability (LCLC-97TM1; first compound 15.81 µM): 0.71 | relative viability (LCLC-97TM1; first compound 50 µM): 0.737 | relative viability (LCLC-97TM1; first compound 158.11 µM): 0.188 | relative viability (LCLC-97TM1; first compound 500 µM): 0.0176 | relative viability (NCI-H838; first compound 5 µM): 0.249 | relative viability (NCI-H838; first compound 15.81 µM): 0.243 | relative viability (NCI-H838; first compound 50 µM): 0.24 | relative viability (NCI-H838; first compound 158.11 µM): 0.122 | relative viability (NCI-H838; first compound 500 µM): 0.0891 | relative viability (UMC-11; first compound 5 µM): 0.977 | relative viability (UMC-11; first compound 15.81 µM): 1.02 | relative viability (UMC-11; first compound 50 µM): 0.955 | relative viability (UMC-11; first compound 158.11 µM): 0.148 | relative viability (UMC-11; first compound 500 µM): 0.112 | relative viability (NCI-H358; first compound 5 µM): 0.287 | relative viability (NCI-H358; first compound 15.81 µM): 0.249 | relative viability (NCI-H358; first compound 50 µM): 0.356 | relative viability (NCI-H358; first compound 158.11 µM): 0.414 | relative viability (NCI-H358; first compound 500 µM): 0.408 | relative viability (H3255; first compound 5 µM): 0.822 | relative viability (H3255; first compound 15.81 µM): 0.802 | relative viability (H3255; first compound 50 µM): 0.879 | relative viability (H3255; first compound 500 µM): 0.878 | relative viability (PC-3 [JPC-3]; first compound 5 µM): 0.594 | relative viability (PC-3 [JPC-3]; first compound 15.81 µM): 0.578 | relative viability (PC-3 [JPC-3]; first compound 50 µM): 0.627 | relative viability (PC-3 [JPC-3]; first compound 158.11 µM): 0.563 | relative viability (PC-3 [JPC-3]; first compound 500 µM): 0.48 | relative viability (NCI-H1666; first compound 5 µM): 0.992 | relative viability (NCI-H1666; first compound 15.81 µM): 1.01 | relative viability (NCI-H1666; first compound 50 µM): 1.12 | relative viability (NCI-H1666; first compound 158.11 µM): 0.223 | relative viability (NCI-H1666; first compound 500 µM): 0.131 | relative viability (NCI-H1792; first compound 5 µM): 0.512 | relative viability (NCI-H1792; first compound 15.81 µM): 0.396 | relative viability (NCI-H1792; first compound 50 µM): 0.375 | relative viability (NCI-H1792; first compound 158.11 µM): 0.353 | relative viability (NCI-H1792; first compound 500 µM): 0.39 | relative viability (NCI-H2228; first compound 5 µM): 0.145 | relative viability (NCI-H2228; first compound 15.81 µM): 0.205 | relative viability (NCI-H2228; first compound 50 µM): 0.137 | relative viability (NCI-H2228; first compound 158.11 µM): 0.141 | relative viability (NCI-H2228; first compound 500 µM): 0.0612 | relative viability (LK-2; first compound 5 µM): 0.19 | relative viability (LK-2; first compound 15.81 µM): 0.198 | relative viability (LK-2; first compound 50 µM): 0.189 | relative viability (LK-2; first compound 158.11 µM): 0.153 | relative viability (LK-2; first compound 500 µM): 0.172 | relative viability (NCI-H1651; first compound 5 µM): 0.867 | relative viability (NCI-H1651; first compound 15.81 µM): 0.932 | relative viability (NCI-H1651; first compound 50 µM): 0.841 | relative viability (NCI-H1651; first compound 158.11 µM): 0.185 | relative viability (NCI-H1651; first compound 500 µM): 0.118 | relative viability (NCI-H661; first compound 5 µM): 0.887 | relative viability (NCI-H661; first compound 15.81 µM): 0.904 | relative viability (NCI-H661; first compound 50 µM): 0.916 | relative viability (NCI-H661; first compound 158.11 µM): 0.468 | relative viability (NCI-H661; first compound 500 µM): 0.141
